Assay results: patent US20060263302A1, “Systemic oxygenation via gastric perfusion with perfluorocarbon (PFC)” (Thomas Jefferson University, priority 2005, published 2006)
Several values for one entry are separate records, joined by “and”; a condition that tells them apart may be missing. Identical values can stand only once.

How the values were obtained:
[1] = Properties of perfluorocarbon (physical characteristics of neat F44E); assay type: physicochemical
Description: Perfluorocarbon: Seventy liters of neat perfluorocarbon F44E (trans-bis-perfluorobutyl ethylene) were provided as a generous gift from Neuron Therapeutics, Inc (Malvern, Pa.). This perfluorocarbon is clear, colorless, odorless, immiscible with water or blood and has the physical characteristics listed in Table 1.

Sus scrofa pigs = assay: Peritoneal perfusion with perfluorocarbon in pigs made hypoxic by ventilation with subatmospheric oxygen; arterial blood gases; assay type: in vivo; conditions: for Fitted mean PaO2 / Observed mean PaO2: pigs, peritoneal perfusion; for Fitted treatment effect: mean PaO2 difference perfluorocarbon versus saline / Observed treatment effect: mean PaO2 difference perfluorocarbon versus saline: oxygenation on
Procedure: Animals: Fifteen Sus scrofa pigs weighing 45-55 kg were used for the experiments. All experiments were approved by the Thomas Jefferson University Institutional Animal Care and Use Committee. The care and handling of all animals were in accord with United States Department of Agriculture guidelines.
Surgical procedure: The animals were induced with Telazol (Fort Dodge Animal Health, Fort Dodge, Iowa) 5 mg/kg injected intramuscularly (IM), after which an intravenous catheter was placed in an ear vein and 30 mg of Propofol (Baxter, Irvine, Calif.) was injected intravenously (IV). The animals were then intubated with a 7.5 mm internal diameter endotracheal tube (Mallinckrodt Inc., St. Louis, Mo.) and maintained with isoflurane inhalation anesthesia, using intermittent Propofol injections for any evidence of discomfort or awakening. The animals were placed on a Harvard Apparatus Dual Phase Control Respirator Pump (South Natick, Mass.) mechanical ventilator with a tidal volume of 10-15 ml/kg and a rate of 12-15 breaths per minute. Prior to subjecting the animal to hypoxia, the respiratory rate was occasionally adjusted in an effort to maintain a neutral pH, as determined by arterial blood gas measurements. Electrocardiography leads were placed in the standard 3-lead positions on each animal, starting at the time of induction, and continuously monitored throughout the experiment. Oxygen saturation was also measured with a Vet/Ox Plus 4700 (SDI, Waukesha, Wis.) pulse oxymeter with the probe placed on the animal's tongue. Once under general anesthesia and in the supine position, a cervical cut down was performed through which a Swan-Ganz right heart catheter (Edwards Lifesciences, Irvine, Calif.) was placed via the internal jugular vein and an 18-gauge angiocatheter was placed in the common carotid artery for access to the central arterial system for blood pressure monitoring and arterial blood gas measurements. Both of these lines were transduced using a pressure monitoring kit with a TruWave pressure transducer (Edwards Lifesciences, Irvine, Calif.) and connected to a Hewlett-Packard Monitor 78834A (Palo Alto, Calif.) system for monitoring the systemic and pulmonary arterial pressures and the central venous pressure.
After placement of the arterial and venous lines, a lower midline laparotomy was performed. A 28 French venous return cannula catheter (Edwards Lifesciences, Irvine, Calif.) was placed in the left paracolic gutter and brought out through a separate site in the left lower quadrant and sutured in place using a number 1 Prolene suture (Ethicon, Sommerville, N.J.). A 42 French venous return cannula (Edwards Lifesciences, Irvine, Calif.) was placed in an identical manner on the right side, with the tip lodged above the dome of the liver. The abdomen was then closed in a single layer with a running number I Prolene. In the first two animals in each experimental group, an additional 14 French catheter (Edwards Lifesciences, Irvine, Calif.) was placed near the midline for pressure monitoring purposes and was maintained in a vertical attitude, attached to a ruler such that the height of the column of fluid could be easily monitored. Peritoneal pressure measurements in centimeters of H2O were calculated by multiplying column height by the correction factor 1.67 (specific gravity of trans-bis-perfluorobutyl ethylene).
Hypoxia circuit: A Matrx anesthesia machine (Orchard Park, N.Y.) was used for blending gasses and isoflurane inhaled anesthetic. Pure nitrogen, rather than filtered room air, was mixed with pure oxygen to achieve subatmospheric concentrations of oxygen. The animal was ventilated using a standard bifurcated anesthesia circuit to maintain unidirectional flow of gasses. A Datex machine (Puritan-Bennett Corporation, Overland Park, Kans.) was attached to the ventilation circuit and allowed real-time monitoring of the oxygen and anesthetic agent concentration. […]

In the case of `FC(F)(F)C(F)(F)C(F)(F)C(F)(F)/C=C/C(F)(F)C(F)(F)C(F)(F)C(F)(F)F` [perfluorocarbon, trans-bis-perfluorobutyl ethylene], the “specific gravity (correction factor for peritoneal pressure)” value [1] is reported as 1.67, the Carbon dioxide capacity ([1]; neat perfluorocarbon F44E) is reported as 200 vol % and the Oxygen capacity ([1]; neat perfluorocarbon F44E) is reported as 50 vol %. The Specific gravity ([1]; neat perfluorocarbon F44E) was 1.668 g/cc, the “Fitted mean PaO2” value (Sus scrofa pigs; FiO2 10%, O2 Off) was 25.7 mm Hg and the “Observed mean PaO2” value (Sus scrofa pigs; FiO2 10%, O2 Off) was 28.0 mm Hg. The “Fitted mean PaO2” value (Sus scrofa pigs; FiO2 10%, O2 On) was 35.2 mm Hg, the “Observed mean PaO2” value (Sus scrofa pigs; FiO2 10%, O2 On) was 36.7 mm Hg and the “Observed mean PaO2” value (Sus scrofa pigs; FiO2 10%, O2 On, listed as oxygenated perfluorocarbon) was 36.7±8.4 mm Hg. For the same molecule, the “Fitted mean PaO2” value (Sus scrofa pigs; FiO2 12%, O2 Off) was 38.5 mm Hg, the “Observed mean PaO2” value (Sus scrofa pigs; FiO2 12%, O2 Off) was 37.1 mm Hg and the “Fitted mean PaO2” value (Sus scrofa pigs; FiO2 12%, O2 On) was 44.5 mm Hg. The “Observed mean PaO2” value (Sus scrofa pigs; FiO2 12%, O2 On) was 43.8 mm Hg, the “Fitted mean PaO2” value (Sus scrofa pigs; FiO2 14%, O2 Off) was 51.3 mm Hg and the “Observed mean PaO2” value (Sus scrofa pigs; FiO2 14%, O2 Off) was 48.8 mm Hg. For the same molecule, the “Fitted mean PaO2” value (Sus scrofa pigs; FiO2 14%, O2 On) was 53.9 mm Hg, the “Observed mean PaO2” value (Sus scrofa pigs; FiO2 14%, O2 On) was 55.3 mm Hg and the “Observed mean PaO2” value (Sus scrofa pigs; FiO2 14%, O2 On, listed as oxygenated perfluorocarbon) was 55.3±7.6 mm Hg and 55.3 mm Hg. For the same molecule, the “arterial oxygen saturation (SaO2)” value (Sus scrofa pigs; FiO2 14%, oxygenated perfluorocarbon perfusion (73% with oxygenated saline)) was 89%, the “Fitted mean PaO2” value (Sus scrofa pigs; FiO2 16%, O2 Off) was 64.2 mm Hg and the “Observed mean PaO2” value (Sus scrofa pigs; FiO2 16%, O2 Off) was 63.7 mm Hg. The “Fitted mean PaO2” value (Sus scrofa pigs; FiO2 16%, O2 On) was 63.3 mm Hg, the “Observed mean PaO2” value (Sus scrofa pigs; FiO2 16%, O2 On) was 64.4 mm Hg and the “Fitted mean PaO2” value (Sus scrofa pigs; FiO2 18%, O2 Off) was 77.0 mm Hg. The “Observed mean PaO2” value (Sus scrofa pigs; FiO2 18%, O2 Off) was 79.8 mm Hg, the “Fitted mean PaO2” value (Sus scrofa pigs; FiO2 18%, O2 On) was 72.7 mm Hg and the “Observed mean PaO2” value (Sus scrofa pigs; FiO2 18%, O2 On) was 68.7 mm Hg. For the same molecule, the “Observed mean PaO2” value (Sus scrofa pigs; FiO2 18%, O2 On, listed as oxygenated perfluorocarbon) was 68.7±10.4 mm Hg, the group-by-oxygenation interaction effect (Sus scrofa pigs; average across FiO2 values) was “about 6.4 mmHg” and the “average mean PaO2 difference perfluorocarbon versus saline” value (Sus scrofa pigs; oxygenation off, across all FiO2 values) was 6.4 mmHg. For the same molecule, the “Fitted treatment effect: mean PaO2 difference perfluorocarbon versus saline” value (Sus scrofa pigs; FiO2 10%) was 9.6 mmHg, the “Observed treatment effect: mean PaO2 difference perfluorocarbon versus saline” value (Sus scrofa pigs; FiO2 10%) was 8.1 mmHg and the “Fitted treatment effect: mean PaO2 difference perfluorocarbon versus saline” value (Sus scrofa pigs; FiO2 12%) was 11.4 mmHg. The “Observed treatment effect: mean PaO2 difference perfluorocarbon versus saline” value (Sus scrofa pigs; FiO2 12%) was 12.4 mmHg, the “Fitted treatment effect: mean PaO2 difference perfluorocarbon versus saline” value (Sus scrofa pigs; FiO2 14%) was 13.2 mmHg and the “Observed treatment effect: mean PaO2 difference perfluorocarbon versus saline” value (Sus scrofa pigs; FiO2 14%) was 15.9 mmHg. For the same molecule, the “Fitted treatment effect: mean PaO2 difference perfluorocarbon versus saline” value (Sus scrofa pigs; FiO2 16%) was 15.0 mmHg, the “Observed treatment effect: mean PaO2 difference perfluorocarbon versus saline” value (Sus scrofa pigs; FiO2 16%) was 18.2 mmHg and the “Fitted treatment effect: mean PaO2 difference perfluorocarbon versus saline” value (Sus scrofa pigs; FiO2 18%) was 16.8 mmHg. For the same molecule, the “Observed treatment effect: mean PaO2 difference perfluorocarbon versus saline” value (Sus scrofa pigs; FiO2 18%) was 8.2 mmHg and the “arterial or venous partial pressure of carbon dioxide (PaCO2 or PvCO2), difference between groups” value (Sus scrofa pigs; perfluorocarbon versus saline, irrespective of FiO2) was “No statistically significant difference”.
